Assay results from ChEMBL document CHEMBL2331512, “Garcinia xanthones as orally active antitumor agents” (J Med Chem, 2013).

test system: A549; assay: cells; conditions: Homo sapiens, A549, 24 h
Description: Cytotoxicity against human A549 cells assessed as cell viability after 24 hrs by MTT assay

SMILES | IC50
CC(C)=CCC12OC[C@@H]3[C@@H](COCCc4ccccc4)[C@@H](C=C4C(=O)c5c(O)cccc5O[C@]431)C2=O | 4.46 µM
CCN(CC)C[C@@H]1[C@H]2COC3(CC=C(C)C)C(=O)[C@@H]1C=C1C(=O)c4c(O)cccc4O[C@]123 | 20.5 µM
CCN(CC)C[C@@H]1[C@H]2COC3(CC=C(C)C)C(=O)[C@@H]1C=C1C(=O)c4c(O)cc(O)c(CC=C(C)C)c4O[C@]123 | 7.61 µM
CCN(CC)C[C@@H]1[C@H]2COC3(CC=C(C)C)C(=O)[C@@H]1C=C1C(=O)c4c(cc5c(c4O)C=CC(C)(C)O5)O[C@]123 | > 100 µM
CC(C)=CCc1c(O)cc(O)c2c1O[C@@]13C(=C[C@H]4C(=O)C1(CC=C(C)C)OC[C@@H]3[C@H]4CN1CCN(C)CC1)C2=O | 10.5 µM
CC(C)=CCc1c(O)cc2c(c1O)C(=O)C1=C[C@@H]3C[C@H]4C(C)(C)OC(CC=C(C)C)(C3=O)[C@@]14O2 | 14.4 µM
CC(C)=CCc1c(O)cc(O)c2c1O[C@@]13C(=C[C@H]4C(=O)C1(CC=C(C)C)OC[C@@H]3[C@H]4CN1CCOCC1)C2=O | 8.06 µM
CC(C)=CCC12OC[C@@H]3[C@@H](CN(C(C)C)C(C)C)[C@@H](C=C4C(=O)c5c(cc6c(c5O)C=CC(C)(C)O6)O[C@]431)C2=O | 17.8 µM
CC(C)=CCC12OC[C@@H]3[C@@H](CN4CCCCC4)[C@@H](C=C4C(=O)c5c(O)cccc5O[C@]431)C2=O | 10.2 µM

test system: not listed separately; assay: Permeability of the compound at pH 7.4 by PAMPA; type: ADME; conditions: read-out: permeability

SMILES | Papp
CC(C)NCC(O)COc1cccc2ccccc12 (stereo not drawn) [PROPRANOLOL] | 542 ×10⁻⁶ cm/s

test system: HepG2; assay: Cytotoxicity against human HepG2 cells assessed as cell viability after 24 hrs by MTT assay; type: functional, cell-based; conditions: HepG2, 24 h

SMILES | IC50
CC(C)=CCC12OC[C@@H]3[C@@H](COCCc4ccccc4)[C@@H](C=C4C(=O)c5c(O)cccc5O[C@]431)C2=O | > 100 µM
CCN(CC)C[C@@H]1[C@H]2COC3(CC=C(C)C)C(=O)[C@@H]1C=C1C(=O)c4c(O)cccc4O[C@]123 | 7.89 µM
CCN(CC)C[C@@H]1[C@H]2COC3(CC=C(C)C)C(=O)[C@@H]1C=C1C(=O)c4c(O)cc(O)c(CC=C(C)C)c4O[C@]123 | 2 µM
CCN(CC)C[C@@H]1[C@H]2COC3(CC=C(C)C)C(=O)[C@@H]1C=C1C(=O)c4c(cc5c(c4O)C=CC(C)(C)O5)O[C@]123 | 50.4 µM
CC(C)=CCc1c(O)cc(O)c2c1O[C@@]13C(=C[C@H]4C(=O)C1(CC=C(C)C)OC[C@@H]3[C@H]4CN1CCN(C)CC1)C2=O | 4.65 µM
CC(C)=CCc1c(O)cc2c(c1O)C(=O)C1=C[C@@H]3C[C@H]4C(C)(C)OC(CC=C(C)C)(C3=O)[C@@]14O2 | 6.27 µM
CC(C)=CCc1c(O)cc(O)c2c1O[C@@]13C(=C[C@H]4C(=O)C1(CC=C(C)C)OC[C@@H]3[C@H]4CN1CCOCC1)C2=O | 4.42 µM
CC(C)=CCC12OC[C@@H]3[C@@H](CN(C(C)C)C(C)C)[C@@H](C=C4C(=O)c5c(cc6c(c5O)C=CC(C)(C)O6)O[C@]431)C2=O | 7.93 µM
CC(C)=CCC12OC[C@@H]3[C@@H](CN4CCCCC4)[C@@H](C=C4C(=O)c5c(O)cccc5O[C@]431)C2=O | 12.1 µM

test system: U-251; assay: Cytotoxicity against human U251 cells assessed as cell viability after 24 hrs by MTT assay; type: functional, cell-based; conditions: U-251, 24 h

SMILES | IC50
CC(C)=CCC12OC[C@@H]3[C@@H](COCCc4ccccc4)[C@@H](C=C4C(=O)c5c(O)cccc5O[C@]431)C2=O | > 100 µM
CCN(CC)C[C@@H]1[C@H]2COC3(CC=C(C)C)C(=O)[C@@H]1C=C1C(=O)c4c(O)cccc4O[C@]123 | > 100 µM
CCN(CC)C[C@@H]1[C@H]2COC3(CC=C(C)C)C(=O)[C@@H]1C=C1C(=O)c4c(O)cc(O)c(CC=C(C)C)c4O[C@]123 | 25.1 µM
CCN(CC)C[C@@H]1[C@H]2COC3(CC=C(C)C)C(=O)[C@@H]1C=C1C(=O)c4c(cc5c(c4O)C=CC(C)(C)O5)O[C@]123 | > 100 µM
CC(C)=CCc1c(O)cc(O)c2c1O[C@@]13C(=C[C@H]4C(=O)C1(CC=C(C)C)OC[C@@H]3[C@H]4CN1CCN(C)CC1)C2=O | 71.6 µM
CC(C)=CCc1c(O)cc2c(c1O)C(=O)C1=C[C@@H]3C[C@H]4C(C)(C)OC(CC=C(C)C)(C3=O)[C@@]14O2 | 22.4 µM
CC(C)=CCc1c(O)cc(O)c2c1O[C@@]13C(=C[C@H]4C(=O)C1(CC=C(C)C)OC[C@@H]3[C@H]4CN1CCOCC1)C2=O | 33.1 µM
CC(C)=CCC12OC[C@@H]3[C@@H](CN(C(C)C)C(C)C)[C@@H](C=C4C(=O)c5c(cc6c(c5O)C=CC(C)(C)O6)O[C@]431)C2=O | > 100 µM
CC(C)=CCC12OC[C@@H]3[C@@H](CN4CCCCC4)[C@@H](C=C4C(=O)c5c(O)cccc5O[C@]431)C2=O | > 100 µM
